Consider 25 molecules from US10308652B2, “Tricyclic heterocyclic compounds useful as inhibitors of TNF” (BRISTOL-MYERS SQUIBB COMPANY, priority 2015, dated 2019).

As a reminder, the IC50 is the concentration that inhibits the measured activity by half. Read a high IC50 as lower potency.

Sequence of TNFα (P01375 77-233): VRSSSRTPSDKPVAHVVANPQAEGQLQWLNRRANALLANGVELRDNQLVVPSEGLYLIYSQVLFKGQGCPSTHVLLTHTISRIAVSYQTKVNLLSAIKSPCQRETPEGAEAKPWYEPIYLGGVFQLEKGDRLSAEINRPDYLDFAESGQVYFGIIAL

The test addresses TNFα (Homo sapiens (Human), UniProt P01375). The test can be described thus: TNF induced HEK-Blue assay. The class given is cell-based. The note with it: TNFα 0.5 ng/ml; HEK-Blue-CD40L cells, NF-κB-driven secreted alkaline phosphatase reporter; 18 h. The protocol:
TNF or CD40L-induced HEK-Blue Assay Test compounds serially diluted in DMSO were plated in an assay plate (Labcyte, Cat. #LP-0200) at final concentrations ranging from 0.004 μM to 25μM. TNFα (final concentration 0.5 ng/ml) or CD4OL (final concentration 30 ng/ml) in assay buffer [DMEM, 4.5 g/l glucose (Gibco, Cat. 21063-029), 10% FBS (Sigma, F4135), 1% Penicillin-Streptomycin (Gibco, Cat. 15140-122), 1% Anti-Anti (Gibco, Cat. 15240-112) and 2 mM L-glutamine (Gibco, Cat. 25030-081)] was then added to the assay plate. After a 30 minute pre-incubation at 37° C. and 5% CO2, HEK-Blue-CD40L cells (InvivoGen, Cat. Code hkb-cd40) containing a NF-κB-driven secreted alkaline phosphatase reporter gene were seeded into the assay plate at a density of 20,000 cells per well. This plate was then incubated for 18 h at 37° C. and 5% CO2. Secreted alkaline phosphatase expression was measured using QUANTI-Blue (InvivoGen, Cat. Code rep-qb1) according to manufacturer's specifications and the assay plate was read on a PerkinElmer Envision at 620 nm. Inhibition data for the test compound over a range of concentrations was plotted as percentage inhibition of the test compound (100%=maximum inhibition). IC50 values were determined after correcting for background [(sample read−mean of low control)/(mean of high control−mean of low control)] where by the low control is DMSO without stimulation and high control is DMSO with stimulation. The IC50 is defined as the concentration of test compound which produces 50% inhibition and was quantified using the 4 parameter logistic equation to fit the data.
Regarding `CC(C)(O)c1ccc(-c2ccc3nc4c(n3n2)[C@H](c2cc(Cl)ccc2C(F)(F)F)NC[C@H]4O)cc1` (racemic) [Example 55, (+/−)-trans-9-(5-chloro-2-(trifluoromethyl)phenyl)-2-(4-(2-hydroxypropan-2-yl)phenyl)-6,7,8,9-tetrahydropyrido [4′,3′:4,5]imidazo[1,2-b]pyridazin-6-ol], the IC50 lay in the range of 1 to 10 µM.
In the case of `CC(C)(O)COc1ccc(-c2ccc3nc4c(n3n2)[C@@H](c2ccccc2OC(F)F)NC[C@H]4O)cc1` (racemic) [Example 29, (+/−)-cis-9-(2-(difluoromethoxy)phenyl)-2-(4-(2-hydroxy-2-methylpropoxy)phenyl)-6,7,8,9-tetrahydropyrido[4′,3′:4,5]imidazo[1,2-b]pyridazin-6-ol], the IC50 fell in the range of 1 to 10 µM.
In the case of “(+/−)-cis-9-(2-(difluoromethoxy)phenyl)-2-(4-morpholinophenyl)-6,7,8,9-tetrahydropyrido[4′,3′:4,5]imidazo[1,2-b]pyridazin-6-ol [Example 45]” it was 1 to 10 µM; in that of “(+/−)-cis-9-(4-fluoro-2-methylphenyl)-2-(4-(2-hydroxypropan-2-yl)phenyl)-6,7,8,9-tetrahydropyrido [4′,3′:4,5]imidazo[1,2-b]pyridazin-6-ol [Example 43]”, 1 to 10 µM; in that of `O=C(NC1CC1)c1ccc(-c2ccc3nc4c(n3n2)C(c2ccccc2OC(F)F)NCC4O)cc1` (stereo not shown) [Example 20, N-cyclopropyl-4-(9-(2-(difluoromethoxy)phenyl)-6-hydroxy-6,7,8,9-tetrahydropyrido[4′,3′:4,5]imidazo[1,2-b]pyridazin-2-yl)benzamide], 10 to 25 µM.
The molecule `CC(C)(O)c1ccc(-c2ccc3nc4c(n3n2)[C@H](c2ccccc2OC(F)F)NC[C@@H]4O)cc1` (racemic) [Example 4, (+/−)-cis-9-(2-(difluoromethoxy)phenyl)-2-(4-(2-hydroxypropan-2-yl)phenyl)-6,7,8,9-tetrahydropyrido[4′,3′:4,5]imidazo[1,2-b]pyridazin-6-ol] displayed an IC50 of less than 1 µM.
In the case of `CC(C)COc1ccc(-c2ccc3nc4c(n3n2)[C@@H](c2ccccc2OC(F)F)NC[C@H]4O)cc1` (racemic) [Example 27, (+/−)-cis-9-(2-(difluoromethoxy)phenyl)-2-(4-isobutoxyphenyl)-6,7,8,9-tetrahydropyrido[4′,3′:4,5]imidazo[1,2-b]pyridazin-6-ol] it was 1 to 10 µM.
Regarding `COc1ccc(-c2ccc3nc4c(n3n2)[C@@H](c2ccccc2OC(F)F)NC[C@H]4F)cn1` (racemic) [Example 11, (+/−)-cis-9-(2-(difluoromethoxy)phenyl)-6-fluoro-2-(6-methoxypyridin-3-yl)-6,7,8,9-tetrahydropyrido [4′,3′:4,5]imidazo[1,2-b]pyridazine], the half-inhibitory concentration (IC50) fell in the range of 10 to 25 µM.
In the case of `CC(C)(O)c1ccc(-c2ccc3nc4c(n3n2)[C@H](c2ccccc2OC(F)F)NC[C@@H]4O)cc1` [Example 7, Cis-(6S,9S)-9-(2-(difluoromethoxy)phenyl)-2-(4-(2-hydroxypropan-2-yl)phenyl)-6,7,8,9-tetrahydropyrido[4′,3′:4,5]imidazo[1,2-b]pyridazin-6-ol] it was 1 to 10 µM.
In the case of `CC(C)(O)c1ccc(-c2ccc3nc4c(n3n2)C(c2ccccc2OC(F)F)NCC4F)cc1` [Example 12, cis-(1S,4S)-2-(4-(9-(2-(difluoromethoxy)phenyl)-6-fluoro-6,7,8,9-tetrahydropyrido[4′,3′:4,5]imidazo[1,2-b]pyridazin-2-yl)phenyl) propan-2-ol] it was less than 1 µM; in that of `CC(C)(O)c1ccc(-c2ccc3nc4c(n3n2)C(c2ccccc2OC(F)F)OCC4(O)c2ccncc2)cc1` (stereo not shown) [Example 60, 9-(2-(Difluoromethoxy)phenyl)-2-(4-(2-hydroxypropan-2-yl)phenyl)-6-(pyridin-4-yl)-6,9-dihydro-7H-pyrano[4′,3′:4,5]imidazo[1,2-b]pyridazin-6-ol], 1 to 10 µM; in that of `CC(C)(O)c1ccc(-c2ccc3nc4c(n3n2)C(c2ccccc2OC(F)F)NCC4)cc1` (racemic) [Example 2, (+/−)-2-(4-(9-(2-(Difluoromethoxy)phenyl)-6,7,8,9-tetrahydropyrido [4′,3′:4,5]imidazo[1,2-b]pyridazin-2-yl)phenyl)propan-2-ol], less than 1 µM.
Under `O=C(c1ccc(-c2ccc3nc4c(n3n2)[C@@H](c2ccccc2OC(F)F)NC[C@H]4O)cc1Cl)N1CCOCC1` (racemic) [Example 47, (+/−)-cis-(2-chloro-4-(9-(2-(difluoromethoxy)phenyl)-6-hydroxy-6,7,8,9-tetrahydropyrido[4′,3′:4,5]imidazo[1,2-b]pyridazin-2-yl)phenyl)(morpholino)methanone] stands 1 to 10 µM; under `CCOc1ccc(-c2ccc3nc4c(n3n2)[C@@H](c2ccccc2OC(F)F)NC[C@H]4O)cc1` (racemic) [Example 31, (+/−)-cis-9-(2-(difluoromethoxy)phenyl)-2-(4-ethoxyphenyl)-6,7,8,9-tetrahydropyrido[4′,3′:4,5]imidazo [1,2-b]pyridazin-6-ol], 1 to 10 µM.
Consider `COc1ccc(Cl)cc1[C@@H]1NC[C@@H](O)c2nc3ccc(-c4ccc(C(C)(C)O)cc4)nn3c21` (racemic) [Example 56, (+/−)-trans-9-(5-chloro-2-methoxyphenyl)-2-(4-(2-hydroxypropan-2-yl)phenyl)-6,7,8,9-tetrahydropyrido[4′,3′:4,5]imidazo[1,2-b]pyridazin-6-ol], for which the concentration for half-maximal inhibition (IC50) is 1 to 10 µM.
On to `CNS(=O)(=O)c1ccc(-c2ccc3nc4c(n3n2)[C@@H](c2ccccc2OC(F)F)NC[C@H]4O)cc1` (racemic) [Example 40, (+/−)-cis-4-(9-(2-(difluoromethoxy)phenyl)-6-hydroxy-6,7,8,9-tetrahydropyrido[4′,3′:4,5]imidazo[1,2-b]pyridazin-2-yl)-N-methylbenzenesulfonamide], for which the half-maximal inhibitory concentration (IC50) was in the range of 1 to 10 µM.
In the case of `CCOC(C)c1ccc(-c2ccc3nc4c(n3n2)C(c2ccccc2OC(F)F)NCC4O)cc1` (racemic) [Example 35, (+/−)-cis-9-(2-(difluoromethoxy)phenyl)-2-(4-(1-ethoxyethyl)phenyl)-6,7,8,9-tetrahydropyrido[4′,3′:4,5]imidazo[1,2-b]pyridazin-6-ol] it was 1 to 10 µM; in that of `Cc1cc(F)ccc1[C@@H]1NC[C@@H](O)c2nc3ccc(-c4ccc(C(C)(C)O)cc4)nn3c21` (racemic) [Example 38, (+/−)-trans-9-(4-fluoro-2-methylphenyl)-2-(4-(2-hydroxypropan-2-yl)phenyl)-6,7,8,9-tetrahydropyrido[4′,3′:4,5]imidazo[1,2-b]pyridazin-6-ol], 1 to 10 µM; in that of `COc1ccccc1COc1ccc(-c2ccc3nc4c(n3n2)[C@@H](c2ccccc2OC(F)F)NC[C@H]4O)cc1` (racemic) [Example 37, (+/−)-cis-9-(2-(difluoromethoxy)phenyl)-2-(4-((2-methoxybenzyl)oxy)phenyl)-6,7,8,9-tetrahydropyrido[4′,3′:4,5]imidazo[1,2-b]pyridazin-6-ol], 1 to 10 µM.
Under `CCCOc1ccc(-c2ccc3nc4c(n3n2)[C@@H](c2ccccc2OC(F)F)NC[C@H]4O)cc1` (racemic) [Example 33, (+/−)-cis-9-(2-(difluoromethoxy)phenyl)-2-(4-propoxyphenyl)-6,7,8,9-tetrahydropyrido [4′,3′:4,5]imidazo[1,2-b]pyridazin-6-ol] stands less than 1 µM.
In the case of `CC(C)(O)c1ccc(-c2ccc3nc4c(n3n2)[C@H](c2cc(Cl)ccc2OC(F)F)NC[C@H]4O)cc1` (racemic) [Example 28, (+/−)-trans-9-(5-chloro-2-(difluoromethoxy)phenyl)-2-(4-(2-hydroxypropan-2-yl)phenyl)-6,7,8,9-tetrahydropyrido[4′,3′:4,5]imidazo[1,2-b]pyridazin-6-ol] it was 1 to 10 µM; in that of `CC(C)(O)c1ccc(-c2ccc3nc4c(n3n2)[C@H](c2ccccc2OC(F)F)NC[C@@H]4F)cc1` (racemic) [Example 8, (+/−)-Cis-2-(4-((6S,9S)-9-(2-(difluoromethoxy)phenyl)-6-fluoro-6,7,8,9-tetrahydropyrido [4′,3′:4,5]imidazo[1,2-b]pyridazin-2-yl)phenyl)propan-2-ol], less than 1 µM.
Molecule `O=C(c1ccc(-c2ccc3nc4c(n3n2)C(c2ccccc2OC(F)F)NCC4O)cc1)N1CCOCC1` (stereo not shown) [Example 19, (4-(9-(2-(difluoromethoxy)phenyl)-6-hydroxy-6,7,8,9-tetrahydropyrido[4′,3′:4,5]imidazo[1,2-b]pyridazin-2-yl)phenyl)(morpholino)methanone] came in with an IC50 of 1 to 10 µM.
In turn, “(+/−)-trans-9-(2,5-dimethylphenyl)-2-(4-(2-hydroxypropan-2-yl)phenyl)-6,7,8,9-tetrahydropyrido[4′,3′:4,5]imidazo[1,2-b]pyridazin-6-ol [Example 53]” came in with a 50% inhibitory concentration (IC50) of 1 to 10 µM.
Under `COC1CN(C(=O)c2ccc(-c3ccc4nc5c(n4n3)C(c3ccccc3OC(F)F)NCC5O)cc2)C1` (stereo not shown) [Example 18, (4-(9-(2-(difluoromethoxy)phenyl)-6-hydroxy-6,7,8,9-tetrahydropyrido[4′,3′:4,5]imidazo[1,2-b]pyridazin-2-yl)phenyl)(3-methoxyazetidin-1-yl)methanone] stands 10 to 25 µM.
